The values below come from patent US9242998B2, “Tetracyclic heterocycle compounds and methods of use thereof for the treatment of hepatitis C” (priority 2013, dated 2016).

A word on the IC50: it is the concentration that inhibits the measured activity by half.

Each structure is given as a SMILES string.

One assay relates to HCV genotype 1a replicon. Description: HCV replicon assay, genotype 1a (cell ELISA for replicon-encoded NS3/4A). It is filed as cell-based. The following applies: Hepatitis C virus, 96 h, read-out: 1a IC50. The procedure:
(§1) Measurement of inhibition by compounds was performed using the HCV replicon system. Several different replicons encoding different HCV genotypes or mutations were used. In addition, potency measurements were made using different formats of the replicon assay, including different ways of measurements and different plating formats. See Jan M. Vrolijk et al., A replicons-based bioassay for the measurement of interferons in patients with chronic hepatitis C, 110 J. V[…] 201 (2003); Steven S. Carroll et al., Inhibition of Hepatitis C Virus RNA Replication by 2′-Modified Nucleoside Analogs, 278(14) J. BIOLOGICAL CHEMISTRY 11979 (2003). However, the underlying principles are common to all of these determinations, and are outlined below.
(§2) Stable neomycin phosphotransferase encoding replicons-harboring cell lines were used, so all cell lines were maintained under G418 selection prior to the assay. Potency was determined using a cell ELISA assay with an antibody to the replicons encoded NS3/4a protease. See Caterina Trozzi et al., In Vitro Selection and Characterization of Hepatitis C Virus Serine Protease Variants Resistant to an Active-Site Peptide Inhibitor, 77(6) J. Virol. 3669 (2003). To initiate an assay, replicon cells were plated in the presence of a dilution series of test compound in the absence of G418. Typically, the assays were performed in a 96-well plate formate for manual operation, or a 384-well plate format for automated assay. Replicon cells and compound were incubated for 96 hours. At the end of the assay, cells were washed free of media and compound, and the cells were then lysed. RNA was quantified indirectly through detection of replicon-encoded NS3/4A protein levels, through an ELISA-based assay with an antibody specific for NS3/4A. IC50 determinations were calculated as a percentage of a DMSO control by fitting the data to a four-parameter fit function and the data obtained is provided in the table below.
(§3) Data for selected compounds of the present invention was obtained for genotypes 1a and 1b using this method and is provided in the table below: […]
For orientation: In antiviral work, replicon cells carry a viral genome segment that copies itself.

The subject of a further assay is HCV genotype 1b replicon. Description: HCV replicon assay, genotype 1b (cell ELISA for replicon-encoded NS3/4A). It is filed as cell-based. As to conditions: Hepatitis C virus, 96 h, read-out: 1b IC50. The procedure:
as §1, §2, §3

Take `CNC(=O)c1c(-c2ccc(C(F)F)cc2)oc2cc(N(C)S(C)(=O)=O)c(-c3ccc4c(n3)-c3cc5c(F)cccc5n3CO4)cc12` [Compound 28, 2-(4-(difluoromethyl)phenyl)-5-(11-fluoro-6H-pyrido[2′,3′:5,6][1,3]oxazino[3,4-a]indol-2-yl)-N-methyl-6-(N-methylmethylsulfonamido)benzofuran-3-carboxamide]: the IC50 with HCV genotype 1a replicon is 9 nM; in the assay with HCV genotype 1b replicon it was 6.9 nM.
As to `CNC(=O)c1c(-c2ccc(C)nc2)oc2cc(N(C)S(C)(=O)=O)c(-c3ccc4c(n3)-c3cc5c(F)cccc5n3CO4)cc12` [Compound 7], the values for the IC50 in the assay with HCV genotype 1a replicon and in the assay on HCV genotype 1b replicon were 8.5 nM and 13 nM, respectively.
Consider `CNC(=O)c1c(-c2ccc(OC)nc2)oc2cc(N(C)S(C)(=O)=O)c(-c3ccc4c(n3)-c3nc5c(F)cccc5n3CO4)cc12` [Compound 20, 5-(11-fluoro-6H-benzo[4,5]imidazo[1,2-c]pyrido[2,3-e][1,3]oxazin-2-yl)-2-(6-methoxypyridin-3-yl)-N-methyl-6-(N-methylmethylsulfonamido)benzofuran-3-carboxamide], for which the IC50 with HCV genotype 1a replicon was determined as 3.7 nM; in the assay with HCV genotype 1b replicon, 2.5 nM.
`CNC(=O)c1c(-c2ccc(C#N)cc2)oc2cc(N(C)S(C)(=O)=O)c(-c3ccc4c(n3)-c3cc5c(F)cccc5n3CO4)cc12` [Compound 29, 2-(4-cyanophenyl)-5-(11-fluoro-6H-pyrido[2′,3′:5,6][1,3]oxazino[3,4-a]indol-2-yl)-N-methyl-6-(N-methylmethylsulfonamido)benzofuran-3-carboxamide]: the IC50 in the assay on HCV genotype 1a replicon was found to be 13 nM; in the assay with HCV genotype 1b replicon it was 25 nM.
The like results for `CNC(=O)c1c(C2CC2)oc2cc(N(C)S(C)(=O)=O)c(-c3ccc4c(n3)-c3cc5c(F)cccc5n3CO4)cc12` [Compound 2] were, in that order, 13 nM and 12 nM.
The like results for `CNC(=O)c1c(-c2ccc(OCC(F)(F)F)nc2)oc2cc(N(C)S(C)(=O)=O)c(-c3ccc4c(n3)-c3cc5c(F)cccc5n3CO4)cc12` [Compound 12] were, in that order, 2.7 nM and 1.8 nM.
For the molecule `CNC(=O)c1c(-c2cccnc2O)oc2cc(N(C)S(C)(=O)=O)c(-c3ccc4c(n3)-c3cc5c(F)cccc5n3CO4)cc12` [Compound 17, 5-(11-fluoro-6H-pyrido[2′,3′:5,6][1,3]oxazino[3,4-a]indol-2-yl)-2-(2-hydroxypyridin-3-yl)-N-methyl-6-(N-methylmethylsulfonamido)benzofuran-3-carboxamide], the IC50 in the assay with HCV genotype 1a replicon stood at 324 nM; with HCV genotype 1b replicon, 393 nM.
On to `CNC(=O)c1c(C2CC2(F)F)oc2cc(N(C)S(C)(=O)=O)c(-c3ccc4c(n3)-c3cc5c(F)cccc5n3CO4)cc12` (stereo not shown) [Compound 50, 2-(2,2-difluorocyclopropyl)-5-(11-fluoro-6H-pyrido[2′,3′:5,6][1,3]oxazino[3,4-a]indol-2-yl)-N-methyl-6-(N-methylmethylsulfonamido)benzofuran-3-carboxamide], for which the results for the IC50 with HCV genotype 1a replicon and in the assay on HCV genotype 1b replicon were 22 nM and 38 nM, respectively.
Take `CNC(=O)c1c(/C(C)=N/OC)oc2cc(N(C)S(C)(=O)=O)c(-c3ccc4c(n3)-c3cc5c(F)cccc5n3CO4)cc12` [Compound 59, 5-(11-fluoro-6H-pyrido[2′,3′:5,6][1,3]oxazino[3,4-a]indol-2-yl)-2-(1-(methoxyimino)ethyl)-N-methyl-6-(N-methylmethylsulfonamido)benzofuran-3-carboxamide]: the IC50 in the assay with HCV genotype 1a replicon was determined as 34 nM; in the assay on HCV genotype 1b replicon it was 13 nM.
Turning to `CNC(=O)c1c(-c2ccc(C(F)(F)F)nc2)oc2cc(N(C)S(C)(=O)=O)c(-c3ccc4c(n3)-c3cc5c(F)cccc5n3CO4)cc12` [Compound 35], the IC50 with HCV genotype 1a replicon was determined as 2.8 nM; in the assay with HCV genotype 1b replicon it was 3.1 nM.
In the case of `CNC(=O)c1c(-c2ccn(C)c(=O)c2)oc2cc(N(C)S(C)(=O)=O)c(-c3ccc4c(n3)-c3cc5c(F)cccc5n3CO4)cc12` [Compound 18, 5-(11-fluoro-6H-pyrido[2′,3′:5,6][1,3]oxazino[3,4-a]indol-2-yl)-N-methyl-2-(1-methyl-2-oxo-1,2-dihydropyridin-4-yl)-6-(N-methylmethylsulfonamido)benzofuran-3-carboxamide], the IC50 in the assay with HCV genotype 1a replicon turned out to be 57 nM; in the assay on HCV genotype 1b replicon, 29 nM.
Regarding `CNC(=O)c1c(C2=CCCC2)oc2cc(N(C)S(C)(=O)=O)c(-c3ccc4c(n3)-c3cc5ccccc5n3CO4)cc12` [Compound 44, 2-(cyclopent-1-en-1-yl)-N-methyl-6-(N-methylmethylsulfonamido)-5-(6H-pyrido[2′,3′:5,6][1,3]oxazino[3,4-a]indol-2-yl)benzofuran-3-carboxamide], the IC50 with HCV genotype 1a replicon stood at 6.2 nM; in the assay on HCV genotype 1b replicon it was 8.3 nM.
Consider `CNC(=O)c1c(-c2ccc(OC(F)F)nc2)oc2cc(N(C)S(C)(=O)=O)c(-c3ccc4c(n3)-c3cc5c(F)cccc5n3C(CO)O4)cc12` (stereo not shown) [Compound 23], for which the IC50 with HCV genotype 1a replicon stood at 2.8 nM; in the assay on HCV genotype 1b replicon it was 2.9 nM.
`CNC(=O)c1c(-c2ccc(=O)n(C(F)F)c2)oc2cc(N(C)S(C)(=O)=O)c(-c3ccc4c(n3)-c3cc5c(F)cccc5n3CO4)cc12` [Compound 26, 2-(1-(difluoromethyl)-6-oxo-1,6-dihydropyridin-3-yl)-5-(11-fluoro-6H-pyrido[2′,3′:5,6][1,3]oxazino[3,4-a]indol-2-yl)-N-methyl-6-(N-methylmethylsulfonamido)benzofuran-3-carboxamide]: the IC50 in the assay on HCV genotype 1a replicon stood at 118 nM; in the assay on HCV genotype 1b replicon, 108 nM.
On to `CNC(=O)c1c(C(=O)N2CCC2)oc2cc(N(C)S(C)(=O)=O)c(-c3ccc4c(n3)-c3cc5c(F)cccc5n3CO4)cc12` [Compound 56], for which the IC50 is 5 nM in the assay on HCV genotype 1a replicon and 11 nM in the assay with HCV genotype 1b replicon.
As to `CNC(=O)c1c(C2=CCSCC2)oc2cc(N(C)S(C)(=O)=O)c(-c3ccc4c(n3)-c3cc5c(F)cccc5n3CO4)cc12` [Compound 32, 2-(3,6-dihydro-2H-thiopyran-4-yl)-5-(11-fluoro-6H-pyrido[2′,3′:5,6][1,3]oxazino[3,4-a]indol-2-yl)-N-methyl-6-(N-methylmethylsulfonamido)benzofuran-3-carboxamide], the values for the IC50 in the assay with HCV genotype 1a replicon and in the assay on HCV genotype 1b replicon were 36 nM and 14 nM, respectively.
The like results for `CNC(=O)c1c(C2=CCCC2)oc2cc(N(C)S(C)(=O)=O)c(-c3ccc4c(n3)-c3cc5c(F)cccc5n3CO4)cc12` [Compound 45] were, in that order, 6.1 nM and 6.4 nM.
Consider `CNC(=O)c1c(-c2ccc(F)nc2)oc2cc(N(C)S(C)(=O)=O)c(-c3ccc4c(n3)-c3cc5c(F)cccc5n3CO4)cc12` [Compound 4], for which the IC50 in the assay on HCV genotype 1a replicon is 3 nM; in the assay with HCV genotype 1b replicon it was 6.1 nM.
For the molecule `CNC(=O)c1c(-c2ccc(OC)nc2)oc2cc(N(C)S(C)(=O)=O)c(-c3ccc4c(n3)-c3cc5c(F)cccc5n3CO4)cc12` [Compound 11], the values for the concentration for half-maximal inhibition (IC50) in the assay with HCV genotype 1a replicon and with HCV genotype 1b replicon were 7.2 nM and 8.4 nM, respectively.
For `CNC(=O)c1c(-c2ccc(Oc3ccc(F)cc3)nc2)oc2cc(N(C)S(C)(=O)=O)c(-c3ccc4c(n3)-c3cc5c(F)cccc5n3CO4)cc12` [Compound 27, 5-(11-fluoro-6H-pyrido[2′,3′:5,6][1,3]oxazino[3,4-a]indol-2-yl)-2-(6-(4-fluorophenoxy)pyridin-3-yl)-N-methyl-6-(N-methylmethylsulfonamido)benzofuran-3-carboxamide], the IC50 stood at 23 nM with HCV genotype 1a replicon and 34 nM in the assay with HCV genotype 1b replicon.
Take `CNC(=O)c1c(-c2ccc(F)cn2)oc2cc(N(C)S(C)(=O)=O)c(-c3ccc4c(n3)-c3cc5c(F)cccc5n3CO4)cc12` [Compound 30]: the IC50 came out at 11 nM with HCV genotype 1a replicon and 25 nM in the assay on HCV genotype 1b replicon.
On to `CNC(=O)c1c(-n2ccccc2=O)oc2cc(N(C)S(C)(=O)=O)c(-c3ccc4c(n3)-c3cc5c(F)cccc5n3CO4)cc12` [Compound 37], for which the IC50 came to 2.2 nM with HCV genotype 1a replicon and 3 nM in the assay on HCV genotype 1b replicon.
For the molecule `CCOc1ccc(-c2oc3cc(N(C)S(C)(=O)=O)c(-c4ccc5c(n4)-c4cc6c(F)cccc6n4CO5)cc3c2C(=O)NC)cn1` [Compound 6], the IC50 in the assay on HCV genotype 1a replicon worked out at 17 nM; in the assay on HCV genotype 1b replicon it was 12 nM.
As to `CNC(=O)c1c(-c2cnc(OC)nc2)oc2cc(N(C)S(C)(=O)=O)c(-c3ccc4c(n3)-c3cc5c(F)cccc5n3CO4)cc12` [Compound 13], the IC50 in the assay on HCV genotype 1a replicon stood at 16 nM; in the assay on HCV genotype 1b replicon, 9.4 nM.
On the same counts, the results for `CNC(=O)c1c(C2CC2)oc2cc(N(C)S(C)(=O)=O)c(-c3ncc4c(n3)-c3cc5c(F)cccc5n3CO4)cc12` [Compound 53] are 33 nM and 30 nM.
Regarding `CNC(=O)c1c(-c2ccnc(OC)c2)oc2cc(N(C)S(C)(=O)=O)c(-c3ccc4c(n3)-c3cc5c(F)cccc5n3CO4)cc12` [Compound 1, 5-(11-fluoro-6H-pyrido[2′,3′:5,6][1,3]oxazino[3,4-a]indol-2-yl)-2-(2-methoxypyridin-4-yl)-N-methyl-6-(N-methylmethylsulfonamido)benzofuran-3-carboxamide], the IC50 is 11 nM with HCV genotype 1a replicon and 14 nM with HCV genotype 1b replicon.
